# In US6677381B1 (Jame Fine Chemicals, Inc., priority 2001, dated 2004):
# Read-outs that look alike come from different tables or passages of the source.
# Columns and labels:
# [1] = cited from earlier work; for solubility in alcohols: alcohols such as methanol, ethanol, isopropanol
# [2] = Solubility in water and organic solvents; format: physicochemical
# Description: The guaifenesin tannate of the invention is a light-tan colored powder which is soluble in water and alcohols, but is insoluble in methylene chloride, chloroform or toluene. […]
Compound,solubility in alcohols [1],solubility in water ([1]; in words),solubility in alcohols [2],solubility in chloroform [2],solubility in methylene chloride [2],solubility in toluene [2],solubility in water [2],solubility in water [1],"solubility in alcohols ([2]; alcohols, physical properties comparison)",solubility in chloroform ([2]; chloroform),solubility in methylene chloride ([2]; methylene chloride),solubility in toluene ([2]; toluene),"solubility in water ([2]; water, physical properties comparison)"
O=C(OC[C@H]1O[C@@H](OC(=O)c2cc(O)c(O)c(OC(=O)c3cc(O)c(O)c(O)c3)c2)[C@H](OC(=O)c2cc(O)c(O)c(OC(=O)c3cc(O)c(O)c(O)c3)c2)[C@@H](OC(=O)c2cc(O)c(O)c(OC(=O)c3cc(O)c(O)c(O)c3)c2)[C@@H]1OC(=O)c1cc(O)c(O)c(OC(=O)c2cc(O)c(O)c(O)c2)c1)c1cc(O)c(O)c(OC(=O)c2cc(O)c(O)c(O)c2)c1 [tannic acid],highly soluble,highly soluble,soluble,insoluble,insoluble,insoluble,soluble,,,,,,
"COc1ccccc1OCC(O)CO (centres unmarked) [guaifenesin, 3-(2-methoxyphenoxy)-1,2-propanediol]",readily soluble,,soluble,,,sparingly soluble,soluble,about 5 wt. %,,,,,
guaifenesin tannate,,,,,,,,,soluble,insoluble,insoluble,insoluble,soluble
